Source: patent US20220251141A1, “IMMUNOMODULATORS” (Bristol-Myers Squibb Company, priority 2019, published 2022)
Bridge positions count the residues as written; N and C are the ends. Square brackets hold non-standard residues; d marks the D form. Peptide text beside a SMILES is read from it. * marks the point of attachment. Trp(1-CH2COOH) = N[C@@H](Cc1cn(CC(=O)O)c2ccccc12)C(=O)O; Trp(1-Me) = Cn1cc(C[C@H](N)C(=O)O)c2ccccc21; Phe(4-F) = N[C@@H](Cc1ccc(F)cc1)C(=O)O; Hyp = O=C(O)[C@@H]1C[C@@H](O)CN1; NMeNle = CCCC[C@H](NC)C(=O)O; NMeC = CN[C@@H](CS)C(=O)O; Pip = O=C(O)[C@@H]1CCCCN1; Dab = NCC[C@H](N)C(=O)O; Dap = NC[C@H](N)C(=O)O; Piv = CC(C)(C)C(=O)*

Molecular target: T1, PD-1/PD-L1 (Homo sapiens, UniProt Q9NZQ7)
T1 construct: TVMV protease site linker (C); made in house; host or cells: HEK293T cells
Test: PD-1/PD-L1 Homogenous Time-Resolved Fluorescence (HTRF) binding assay
Conditions: PD-L1-His 10 nM final, PD-1-Ig 20 nM final; inhibitors pre-incubated with PD-L1-His for 15 m
Method in brief: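 Compounds pre-incubated 15 min with human PD-L1(18-239)-His (10 nM final), then PD-1(25-167)-Ig (20 nM final) added for 15 min, in dPBS with 0.1% BSA and 0.05% Tween-20. Eu-cryptate anti-Ig (1 nM) and APC anti-His (20 nM) added, 30 min equilibration, 665/620 nm ratio read; IC50 reported.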

Row | IC50 [nM] | Compound
1 | 22.9 | CCCC[C@H]1C(=O)N(C)[C@@H](CCCC)C(=O)N[C@@H](CC(C)C)C(=O)N[C@H](C(N)=O)CSCC(=O)N[C@@H](Cc2ccc(F)cc2)C(=O)N2CCCC[C@H]2C(=O)N[C@@H](CC(=O)O)C(=O)N2CCC[C@H]2C(=O)N[C@@H](CNC(=O)C(C)(C)C)C(=O)N[C@@H](CC(C)C)C(=O)N2C[C@H](O)C[C@H]2C(=O)N[C@@H](Cc2c[nH]c3ccccc23)C(=O)N[C@@H](CCNC(=O)C(C)(C)C)C(=O)N[C@@H](Cc2cn(CC(=O)O)c3ccccc23)C(=O)N1C [Example 20250] ({CH2CO}-[Phe(4-F)][Pip]DP[Dap](Piv)L[Hyp]W[Dab](Piv)[Trp(1-CH2COOH)][NMeNle][NMeNle]LC-NH2; thioether N-14)
2 | 28.9 | CCCC[C@H]1C(=O)N(C)[C@@H](CCCC)C(=O)N[C@@H](CC(C)C)C(=O)N[C@H](C(N)=O)CSCC(=O)N[C@@H](Cc2ccc(F)cc2)C(=O)N2CCCC[C@H]2C(=O)N[C@@H](CC(N)=O)C(=O)N2CCC[C@H]2C(=O)N[C@@H](CNC(=O)C(C)(C)C)C(=O)N[C@@H](CC(C)C)C(=O)N2C[C@H](O)C[C@H]2C(=O)N[C@@H](Cc2c[nH]c3ccccc23)C(=O)N[C@@H](CCN)C(=O)N[C@@H](Cc2cn(C)c3ccccc23)C(=O)N1C [Example 20260] ({CH2CO}-[Phe(4-F)][Pip]NP[Dap](Piv)L[Hyp]W[Dab][Trp(1-Me)][NMeNle][NMeNle]LC-NH2; thioether N-14)
3 | 43.2 | CCCC[C@H]1C(=O)N(C)[C@@H](CCCC)C(=O)N[C@@H](CCC(=O)O)C(=O)N[C@H](C(N)=O)CSCC(=O)N[C@@H](Cc2ccc(F)cc2)C(=O)N2CCCC[C@H]2C(=O)N[C@@H](CC(N)=O)C(=O)N2CCC[C@H]2C(=O)N[C@@H](CNC(=O)C(C)(C)C)C(=O)N[C@@H](CC(C)C)C(=O)N2C[C@H](O)C[C@H]2C(=O)N[C@@H](Cc2c[nH]c3ccccc23)C(=O)N[C@@H](CCN)C(=O)N[C@@H](Cc2cn(C)c3ccccc23)C(=O)N1C [Example 20270] ({CH2CO}-[Phe(4-F)][Pip]NP[Dap](Piv)L[Hyp]W[Dab][Trp(1-Me)][NMeNle][NMeNle]EC-NH2; thioether N-14)
4 | 50.3 | CCCC[C@H]1C(=O)N(C)[C@@H](CCCC)C(=O)N[C@@H](CC(C)C)C(=O)N[C@H](C(N)=O)CSCC(=O)N[C@@H](Cc2ccc(F)cc2)C(=O)N2CCCC[C@H]2C(=O)N[C@@H](CC(N)=O)C(=O)N2CCC[C@H]2C(=O)N[C@@H](CNC(=O)C(C)(C)C)C(=O)N[C@@H](CC(C)C)C(=O)N2C[C@H](O)C[C@H]2C(=O)N[C@@H](Cc2c[nH]c3ccccc23)C(=O)N[C@@H](CCNC(=O)C(C)(C)C)C(=O)N[C@@H](Cc2cn(C)c3ccccc23)C(=O)N1C [Example 20280] ({CH2CO}-[Phe(4-F)][Pip]NP[Dap](Piv)L[Hyp]W[Dab](Piv)[Trp(1-Me)][NMeNle][NMeNle]LC-NH2; thioether N-14)
5 | 70.1 | CCCC[C@H]1C(=O)N(C)[C@@H](CCCC)C(=O)N[C@@H](CCC(=O)O)C(=O)N[C@H](C(N)=O)CSCC(=O)N[C@@H](Cc2ccc(F)cc2)C(=O)N2CCCC[C@H]2C(=O)N[C@@H](CC(=O)O)C(=O)N2CCC[C@H]2C(=O)N[C@@H](CNC(=O)C(C)(C)C)C(=O)N[C@@H](CC(C)C)C(=O)N2C[C@H](O)C[C@H]2C(=O)N[C@@H](Cc2c[nH]c3ccccc23)C(=O)N[C@@H](CCNC(=O)C(C)(C)C)C(=O)N[C@@H](Cc2cn(C)c3ccccc23)C(=O)N1C [Example 20290] ({CH2CO}-[Phe(4-F)][Pip]DP[Dap](Piv)L[Hyp]W[Dab](Piv)[Trp(1-Me)][NMeNle][NMeNle]EC-NH2; thioether N-14)
6 | 38.2 | CCCC[C@H]1C(=O)N(C)[C@@H](CCCC)C(=O)N[C@@H](CC(C)C)C(=O)N[C@H](C(N)=O)CSCC(=O)N[C@@H](Cc2ccc(F)cc2)C(=O)N2CCCC[C@H]2C(=O)N[C@@H](CC(N)=O)C(=O)N2CCC[C@H]2C(=O)N[C@@H](CNC(=O)C(C)(C)C)C(=O)N[C@@H](CC(C)C)C(=O)N2C[C@H](O)C[C@H]2C(=O)N[C@@H](Cc2c[nH]c3ccccc23)C(=O)N[C@@H](CCN)C(=O)N[C@@H](Cc2cn(CC(=O)O)c3ccccc23)C(=O)N1C [Example 20300] ({CH2CO}-[Phe(4-F)][Pip]NP[Dap](Piv)L[Hyp]W[Dab][Trp(1-CH2COOH)][NMeNle][NMeNle]LC-NH2; thioether N-14)
7 | 18 | CCCC[C@H]1C(=O)N(C)[C@@H](CCCC)C(=O)N[C@@H](CC(C)C)C(=O)N(C)[C@H](C(N)=O)CSCC(=O)N[C@@H](Cc2ccc(F)cc2)C(=O)N2CCCC[C@H]2C(=O)N[C@@H](CC(=O)N(C)C)C(=O)N2CCC[C@H]2C(=O)N[C@@H](CNC(=O)C(C)(C)C)C(=O)N[C@@H](CC(C)C)C(=O)N2C[C@H](O)C[C@H]2C(=O)N[C@@H](Cc2c[nH]c3ccccc23)C(=O)N[C@@H](CO)C(=O)N[C@@H](Cc2cn(CC(=O)O)c3ccccc23)C(=O)N1C [Example 20310] ({CH2CO}-[Phe(4-F)][Pip]D(NMe2)P[Dap](Piv)L[Hyp]WS[Trp(1-CH2COOH)][NMeNle][NMeNle]L[NMeC]-NH2; thioether N-14)
